From patent publication US11357774B2, “Use of a quinoline sulfonyl compound for treatment of inflammation, inflammatory disorders, autoimmune disorders and malaria” (priority 2019, dated 2022) come the findings set out here.

A word on the IC50: it is the midpoint of a concentration-inhibition curve. Lower therefore signals greater potency in that assay.

Test [1] deals with BALB/c mice with ALI caused by LPS. Description: LPS-induced acute lung injury in mice, bronchoalveolar fluid cell counts and TNF-α. Type of test: in vivo, mouse. The settings on record: 24 hours, VR23 30 mg/kg intraperitoneally. The text has this:
(§1) The enzyme-linked immunosorbent assay (ELISA) is a quantitative measurement based on sandwich-based enzyme linking, using a protein-specific capture antibody to determine the levels of single or multiple chemokines and cytokines.
Six to eight week old female BALB/c mice strain 028 (Charles River Laboratories, QC, Canada) were fed regularly with laboratory chow and water upon arrival at the Laurentian University Animal Care Facility (Sudbury, ON, Canada). To determine a useful dose of LPS, three mice per group were treated for 24 hours with the following three different conditions: (i) no LPS, (ii) 0.25 mg of LPS per kg of body weight, and (iii) 0.50 mg of LPS per kg of body weight. […] After the animals were sacrificed, the bronchoalveolar lavage fluid (BALF) of each mouse was collected and analyzed for LPS-induced inflammatory responses. […] Bronchoalveolar lavage fluid was collected and the number of cells infiltrated into the bronchoalveolar fluid were counted (FIG. 2). […]
Toward this goal, a useful LPS dose to induce TNF-α in the mouse bronchoalveolar fluid was first obtained. […] To illustrate the anti-inflammatory property of VR23, the level of TNF-α in the BALF was measured at 24-hour post-treatment. […] The levels of TNF-α were determined at 24-hour post-LPS stimulation (0.4 mg/kg), in the absence (controls) or presence of DEX (4 mg/kg) or VR23 (30 mg/kg).

Another test has as its system PBMC cells. In words: Sulforhodamine B (SRB) assay, IC50 on PBMC. In kind it is cell-based, human. As to the method:
The sulforhodamine B (SRB) assay^21 was used to determine the drug concentration that half of the cell growth/viability is inhibited (IC50). Cells were cultured in 96-well plates, with 5,000 cells in 100 μL of culture medium per well. The rest of the protocol was the same as described previously^22,23.
Data shown in Table 1 are IC50 values of VR23 and other compounds, which were determined using sulforhodamine B (SRB) assays on immunologically relevant cells (THP-1, SW-982 and PBMC). […] Two well-known proteasome inhibitors, BTZ and CFZ, were included for comparison since VR23 is also a proteasome inhibitor, albeit targeting different subunits^2. The widely used anti-inflammatory DEX was included, also for comparison.
THP-1, SW982 and PBMC cells (5,000 cells/well) were treated with each compound for 48 hours. The IC50, the drug concentration reducing cell growth/viability by 50%, was determined by a dose-response four-parameter curve (generated with GraphPad Prism V. 4.02) formed by 10 two-fold dilutions (n=3).

Test [2] concerns CQ-resistant P. falciparum ItG. Description: Anti-parasitic assay (SYBR Green I), ItG strain. The settings on record: Plasmodium falciparum, 48 h. In kind it is cell-based. As to the method:
The CQ-resistant P. falciparum ItG and the CQ-sensitive 3D7 strains were maintained and assays carried out as described previously^25. Briefly, P. falciparum strains were maintained in RPMI 1640 culture medium supplemented with 10% human serum, 25 mM HEPES, gentamicin, and 50 μM of hypoxanthine. The anti-parasitic assay was carried out as described previously^25. Briefly, a compound gradient was generated across a 96-well assay plate; a constant number of parasites added in 50 μL of the culture medium; allowed to grow for 48 hours; and followed by the measurement of DNA amounts (i.e., fluorescence) using SYBR Green I. The IC50 value is the 50% point between alive and dead for which a three-parameter fit was used.
VR23 is a derivative of CQ; a well-known anti-malarial drug. […] ItG and […] P. falciparum strains are CQ-resistant and CQ-sensitive strains, respectively. IC50 values were calculated by S.E.M (Table 2).

The test system of test [3] is IL-6 secretion in SW-982 synovial cells. Description: IL-6 secretion in IL-1β-stimulated SW-982 synovial cells (ELISA). In kind it is cell-based, human. The settings on record: SW-982, IL-1β 1 ng/mL, 6 hours; VR23 10 μM, HCQ 60 μM. As to the method: The mean±SEM (n=2) values were determined by a Dunnett's test.
as §1
The measurement was carried out with a single-analyte ELISA. […] While not wishing to be limited by theory, cytokine IL-6 is strongly implicated to the progress of rheumatoid arthritis^29.
(In general: In an ELISA, binding on a coated surface is turned into a signal by an enzyme label.)

For the compound `O=[N+]([O-])c1ccc(S(=O)(=O)N2CCN(c3ccnc4cc(Cl)ccc34)CC2)c([N+](=O)[O-])c1` [VR23, 7-chloro-4-(4-(2,4-dinitrophenylsulfonyl)piperazin-1-yl)quinoline], the “total number of cells recruited into the bronchoalveolar space” value in test [1] (LPS 0.4 mg/kg intranasally) is reported as “completely prevented”. Also, in test [1] (LPS 0.4 mg/kg), the “level of TNF-α in bronchoalveolar lavage fluid” value was “effectively reduces the level of TNF-α”. Moreover, the IC50 amounted to 3140 ± 260 nM with PBMC cells (48 hours); 3000 nM in the test on PBMC cells (Homo sapiens, 48 h); 117 nM in test [2]. Besides, the “secretion of IL-6” value in test [3] is on record as “substantially reduced the secretion of IL-6”.
